Test results from ChEMBL document CHEMBL1201862, “PubChem BioAssay data set” (2004).
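The compound was tested at five concentrations on cells cultured in 96-well plates, with a 48-hour exposure period. The concentration for 50% growth inhibition is given as GI50.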 Calls of active or inactive are those of the source. No stated cut-off is given here; in the data, active = GI50 up to about 1.1 µM and inactive = higher.

Columns and labels:
Test in all cases: NCI-60 cell line screen, 48 h
NCI-H23 = tested on: NCI-H23
CCRF-CEM = tested on: CCRF-CEM
UACC-62 = tested on: UACC-62
EKVX = tested on: EKVX
TK-10 = tested on: TK-10
SN12C = tested on: SN12C
HCT-116 = tested on: HCT-116
HT-29 = tested on: HT-29
SNB-75 = tested on: SNB-75
ACHN = tested on: ACHN
OVCAR-3 = tested on: OVCAR-3
OVCAR-4 = tested on: OVCAR-4
SF-539 = tested on: SF-539
MOLT-4 = tested on: MOLT-4
UO-31 = tested on: UO-31
HCC 2998 = tested on: HCC 2998
A498 = tested on: A498

SMILES | GI50 (NCI-H23) | GI50 (CCRF-CEM) | GI50 (UACC-62) | GI50 (EKVX) | GI50 (TK-10) | GI50 (SN12C) | GI50 (HCT-116) | GI50 (HT-29) | GI50 (SNB-75) | GI50 (ACHN) | GI50 (OVCAR-3) | GI50 (OVCAR-4) | GI50 (SF-539) | GI50 (MOLT-4) | GI50 (UO-31) | GI50 (HCC 2998) | GI50 (A498)
NC(Cc1ccccc1)C(=O)OCN1C(=O)C2C3C=CC(C2C1=O)C1C2C(=O)N(COC(=O)C(N)Cc4ccccc4)C(=O)C2C31 (stereo not given) | 20.2 µM (inactive) | 21.1 µM (inactive) | 23 µM (inactive) | > 100 µM (inactive) | 49.3 µM (inactive) | 22.3 µM (inactive) | 16.3 µM (inactive) | 33.2 µM (inactive) | 22.9 µM (inactive) | 23.1 µM (inactive) | 33 µM (inactive) | 18.3 µM (inactive) | 22.2 µM (inactive) |  |  |  | 
CC(=O)NNc1nc(C)c(C(=O)/C=C/c2ccc(N(C)C)cc2)s1 | > 100 µM (inactive) | > 100 µM (inactive) | > 100 µM (inactive) | > 100 µM (inactive) | > 100 µM (inactive) | > 100 µM (inactive) |  | > 100 µM (inactive) | 79.8 µM (inactive) | > 100 µM (inactive) | > 100 µM (inactive) |  | > 100 µM (inactive) | > 100 µM (inactive) | > 100 µM (inactive) | > 100 µM (inactive) | > 100 µM (inactive)
COc1cc(CNC2c3cc4c(cc3C(c3cc(OC)c(OC)c(OC)c3)[C@H]3C(=O)OCC23)OCO4)cc(OC)c1OC (stereo not given in full) | 0.267 µM (active) | 0.35 µM (active) | 0.156 µM (active) |  | > 100 µM (inactive) | 0.376 µM (active) | 0.245 µM (active) | 0.335 µM (active) | 0.535 µM (active) | 0.42 µM (active) | 0.627 µM (active) |  | 0.191 µM (active) | 0.367 µM (active) | 0.792 µM (active) | 0.305 µM (active) | 0.254 µM (active)
O=c1c2ccccc2[nH]c2ccc3c(Cl)n[nH]c3c12 | 35.2 µM (inactive) | 56.9 µM (inactive) | 35 µM (inactive) | 47.3 µM (inactive) | 23.8 µM (inactive) | 33.5 µM (inactive) | 31.8 µM (inactive) | 37.6 µM (inactive) | 42.9 µM (inactive) | 27.8 µM (inactive) | 57.4 µM (inactive) | 59.4 µM (inactive) |  | 9.95 µM (inactive) | 26.7 µM (inactive) | 35.5 µM (inactive) | 30.9 µM (inactive)
NC1=NN(c2ccccc2)C(=O)C1C(=O)C(=O)Nc1cccc(C(F)(F)F)c1 (stereo not given) | > 100 µM (inactive) | > 100 µM (inactive) | > 100 µM (inactive) | > 100 µM (inactive) | > 100 µM (inactive) | > 100 µM (inactive) | > 100 µM (inactive) | > 100 µM (inactive) |  | > 100 µM (inactive) | > 100 µM (inactive) | > 100 µM (inactive) | > 100 µM (inactive) | > 100 µM (inactive) | > 100 µM (inactive) | > 100 µM (inactive) | > 100 µM (inactive)
CCOc1ccc(NC(=O)C(=O)CC(=O)C2=C(C)Nc3ccccc3S2)cc1 | > 50 µM (inactive) | > 50 µM (inactive) | > 50 µM (inactive) | > 50 µM (inactive) | > 50 µM (inactive) | > 50 µM (inactive) | > 50 µM (inactive) | > 50 µM (inactive) |  | > 50 µM (inactive) | > 50 µM (inactive) | > 50 µM (inactive) | > 50 µM (inactive) | > 50 µM (inactive) | > 50 µM (inactive) | > 50 µM (inactive) | > 50 µM (inactive)
Cc1ccc(C2=C(c3ccccc3)C(O)(c3ccc(C)cc3)C(c3ccccc3)=C2c2ccc(C)cc2)cc1 | 1.91 µM (inactive) | > 100 µM (inactive) | > 100 µM (inactive) | 72.1 µM (inactive) | > 100 µM (inactive) | > 100 µM (inactive) | > 100 µM (inactive) |  |  | > 100 µM (inactive) | 69 µM (inactive) | > 100 µM (inactive) | > 100 µM (inactive) | > 100 µM (inactive) |  | > 100 µM (inactive) | > 100 µM (inactive)
CCOC(=O)c1ccc(/N=C\c2ccc(N(CCC#N)CCC#N)cc2)cc1 | > 100 µM (inactive) | 46.9 µM (inactive) | 21.5 µM (inactive) | > 100 µM (inactive) | 39.6 µM (inactive) | > 100 µM (inactive) | 48 µM (inactive) | > 100 µM (inactive) | 47.4 µM (inactive) | 43.2 µM (inactive) | > 100 µM (inactive) | 41.6 µM (inactive) | 45.5 µM (inactive) | 32.4 µM (inactive) | 27.2 µM (inactive) |  | > 100 µM (inactive)
CCCCCCCCCCCCCCCCCCOCC(C[N+]1(C)CCC(O)CC1)OCC (stereo not given) | 2.88 µM (inactive) | 1.97 µM (inactive) | 5.27 µM (inactive) | 13.8 µM (inactive) | 3.92 µM (inactive) | 4.06 µM (inactive) | 7.71 µM (inactive) | 3.37 µM (inactive) | 3.95 µM (inactive) |  | 3.85 µM (inactive) | 4.1 µM (inactive) | 14.9 µM (inactive) | 2.87 µM (inactive) | 11.9 µM (inactive) | 12.7 µM (inactive) | 11.7 µM (inactive)
CN(Cc1ccccc1)c1nc(=[N+](C)C)ss1 | 31.8 µM (inactive) | 3.55 µM (inactive) | 24.6 µM (inactive) | > 100 µM (inactive) | 35.2 µM (inactive) | 65 µM (inactive) | 34.6 µM (inactive) | 74.8 µM (inactive) | > 100 µM (inactive) | > 100 µM (inactive) |  | > 100 µM (inactive) | 76.4 µM (inactive) | 32.1 µM (inactive) | > 100 µM (inactive) | > 100 µM (inactive) | 99.5 µM (inactive)
Cc1cc(NS(=O)(=O)c2ccc(Nc3c4ccccc4nc4c(C(=O)NCCN(C)C)ccc(Cl)c34)cc2)no1 | 3.05 µM (inactive) | 1.28 µM (inactive) | 2.35 µM (inactive) | 8.34 µM (inactive) | 13.9 µM (inactive) | 3.88 µM (inactive) | 3.3 µM (inactive) | 2.86 µM (inactive) | 2.76 µM (inactive) | 2.43 µM (inactive) | 11.7 µM (inactive) | 4.09 µM (inactive) | 3.14 µM (inactive) | 0.28 µM (active) | 3.23 µM (inactive) | 3.21 µM (inactive) | 
CC1=C(/C(C)=N/NC(=O)c2ccccc2O)C(C)C(/C(C)=N/NC(=O)c2ccccc2O)=C(C)N1 | 13 µM (inactive) |  | 6.5 µM (inactive) | 14.7 µM (inactive) | 18.8 µM (inactive) | 45.1 µM (inactive) | 18.5 µM (inactive) | 42.3 µM (inactive) | 11.6 µM (inactive) | 16.3 µM (inactive) | 12.2 µM (inactive) | 11.5 µM (inactive) | 20 µM (inactive) | 5.09 µM (inactive) | 15.5 µM (inactive) |  | 27.8 µM (inactive)
O/N=C1/C(=C/c2ccc(Br)cc2)CCCC1C(NO)c1ccc(Br)cc1 (stereo not given) | > 10 µM (inactive) | 18 µM (inactive) | 13.9 µM (inactive) | > 10 µM (inactive) | 18.3 µM (inactive) | 12.4 µM (inactive) | 16.5 µM (inactive) | 18.3 µM (inactive) | 19.1 µM (inactive) | 17 µM (inactive) | 17.4 µM (inactive) | 10.4 µM (inactive) | 22.4 µM (inactive) | 8.32 µM (inactive) | 16 µM (inactive) |  | 10.3 µM (inactive)
Cc1cc(OC(=O)c2c(C)cc(OC(=O)c3c(C)cc(O)cc3O)cc2O)cc(O)c1C(=O)O [GYROPHORIC ACID] | > 100 µM (inactive) | > 100 µM (inactive) | > 100 µM (inactive) | > 100 µM (inactive) | > 100 µM (inactive) | > 100 µM (inactive) |  | > 100 µM (inactive) | 91.6 µM (inactive) | > 100 µM (inactive) | > 100 µM (inactive) | > 100 µM (inactive) | > 100 µM (inactive) | > 100 µM (inactive) | 76.4 µM (inactive) | > 100 µM (inactive) | > 100 µM (inactive)
CC1(C)CC(C2CC(C)(C)CC(C)(C)[C@H]2O)[C@@H](O)C(C)(C)C1 (stereo not given in full) | > 100 µM (inactive) | > 100 µM (inactive) | > 100 µM (inactive) | > 100 µM (inactive) | > 100 µM (inactive) | > 100 µM (inactive) | > 100 µM (inactive) | > 100 µM (inactive) |  | > 100 µM (inactive) | > 100 µM (inactive) |  | > 100 µM (inactive) | > 100 µM (inactive) | > 100 µM (inactive) | > 100 µM (inactive) | 
CC(=O)OC1C=CC2CCN3C(=O)c4cc5c(cc4[C@H]1C23)OCO5 (stereo not given in full) | > 100 µM (inactive) | > 100 µM (inactive) | > 100 µM (inactive) | > 100 µM (inactive) | > 100 µM (inactive) | > 100 µM (inactive) | > 100 µM (inactive) | > 100 µM (inactive) | > 100 µM (inactive) | > 100 µM (inactive) | > 100 µM (inactive) |  | > 100 µM (inactive) | > 100 µM (inactive) | > 100 µM (inactive) | > 10 µM (inactive) | 
C#CC[N+](C)(CC#C)CC#C | > 100 µM (inactive) | > 100 µM (inactive) | > 100 µM (inactive) | > 100 µM (inactive) | > 100 µM (inactive) | > 100 µM (inactive) |  | > 100 µM (inactive) | > 100 µM (inactive) | > 100 µM (inactive) | > 100 µM (inactive) | > 100 µM (inactive) |  | > 100 µM (inactive) | > 100 µM (inactive) | > 100 µM (inactive) | 
O=C1CCCC/C1=C/C=C/c1ccccc1 | 51.4 µM (inactive) | 34.6 µM (inactive) | 52.1 µM (inactive) |  | > 100 µM (inactive) | > 100 µM (inactive) | 43.7 µM (inactive) | 49.3 µM (inactive) | 32.7 µM (inactive) | 71.4 µM (inactive) | 66.4 µM (inactive) | 63.8 µM (inactive) | > 100 µM (inactive) | 26.9 µM (inactive) | 44.4 µM (inactive) | > 100 µM (inactive) | > 100 µM (inactive)
